Source: US20230085307A1, “PYRIDAZINONE COMPOUND AND HERBICIDE” (NISSAN CHEMICAL CORPORATION, priority 2019, published 2023)

How the values were obtained:
[1] = test system: late watergrass; assay: Test Example 1: herbicidal activity, application before weed generation under submerged conditions (Table 16, symbol A); assay type: in vivo, late watergrass (Echinochloa oryzicola); settings: amount of applied herbicide 320 g/ha
Outline: (§1)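 Emulsion formulation, water-diluted to set dose, was put onto the flooded surface (4 cm depth, alluvial soil) the same day weeds were sown and 2.5-leaf rice transplanted. After 3 weeks at 25-30 °C under glass, each species was rated 0 (≤5% kill) to 5 (≥90% kill).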

[2] = test system: Japanese bulrush; assay: Test Example 1: herbicidal activity, application before weed generation under submerged conditions (Table 16, symbol B); assay type: in vivo, Japanese bulrush (Schoenoplectus juncoides); settings: amount of applied herbicide 320 g/ha
Outline: as §1

[3] = test system: oval-leafed pondweed; assay: Test Example 1: herbicidal activity, application before weed generation under submerged conditions (Table 16, symbol C); assay type: in vivo, oval-leafed pondweed (Monochoria vaginalis); settings: amount of applied herbicide 320 g/ha
Outline: as §1

[4] = test system: Chinese sprangletop; assay: Test Example 3: herbicidal effect by foliage application, Wagner pot (Table 18, symbol D); assay type: in vivo, chinese sprangletop (Leptochloa chinensis); settings: amount of applied herbicide 320 g/ha
Outline: (§2)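 Plants were sown in alluvial soil held under 0.1–0.5 cm standing water and grown 14 days in a greenhouse at 25–30 °C. An emulsifiable formulation, water-diluted to the set dose, was then sprayed onto the foliage, and effects were scored three weeks later using previously defined criteria.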

[5] = test system: rice flat sedge; assay: Test Example 3: herbicidal effect by foliage application, Wagner pot (Table 18, symbol E); assay type: in vivo, rice flat sedge (Cyperus iria); settings: amount of applied herbicide 320 g/ha
Outline: as §2

[6] = test system: southern crabgrass; assay: Test Example 4: herbicidal effect by soil treatment (Table 19, symbol F); assay type: in vivo, southern crabgrass (Digitaria ciliaris); settings: amount of applied herbicide 320 g/ha
Outline: (§3)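 Three weeks of greenhouse growth at 25° C. to 30° C. followed a uniform surface spray of water-diluted emulsion at a predetermined herbicide amount. Seeds had been sown beforehand under about 1.5 cm of sterilized diluvial soil. Grading followed criteria set out in an earlier test.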

[7] = test system: green foxtail; assay: Test Example 4: herbicidal effect by soil treatment (Table 19, symbol G); assay type: in vivo, green foxtail (Setaria viridis); settings: amount of applied herbicide 320 g/ha
Outline: as §3

[8] = test system: barnyard grass; assay: Test Example 4: herbicidal effect by soil treatment (Table 19, symbol H); assay type: in vivo, barnyard grass (Echinochloa crus-galli); settings: amount of applied herbicide 320 g/ha
Outline: as §3

[9] = test system: wild oat; assay: Test Example 4: herbicidal effect by soil treatment (Table 19, symbol I); assay type: in vivo, wild oat (Avena fatua); settings: amount of applied herbicide 320 g/ha
Outline: as §3

[10] = test system: blackgrass; assay: Test Example 4: herbicidal effect by soil treatment (Table 19, symbol J); assay type: in vivo, blackgrass (Alopecurus myosuroides); settings: amount of applied herbicide 320 g/ha
Outline: as §3

[11] = test system: Italian ryegrass; assay: Test Example 4: herbicidal effect by soil treatment (Table 19, symbol K); assay type: in vivo, Italian ryegrass (Lolium multiflorum); settings: amount of applied herbicide 320 g/ha
Outline: as §3

[12] = test system: windgrass; assay: Test Example 4: herbicidal effect by soil treatment (Table 19, symbol L); assay type: in vivo, windgrass (Apera spica-venti); settings: amount of applied herbicide 320 g/ha
Outline: as §3

[13] = test system: velvetleaf; assay: Test Example 4: herbicidal effect by soil treatment (Table 19, symbol M); assay type: in vivo, velvetleaf (Abutilon theophrasti); settings: amount of applied herbicide 320 g/ha
Outline: as §3

[14] = test system: redroot pigweed; assay: Test Example 4: herbicidal effect by soil treatment (Table 19, symbol N); assay type: in vivo, redroot pigweed (Amaranthus retroflexus); settings: amount of applied herbicide 320 g/ha
Outline: as §3

[15] = test system: lambsquarters; assay: Test Example 4: herbicidal effect by soil treatment (Table 19, symbol O); assay type: in vivo, lambsquarters (Chenopodium album); settings: amount of applied herbicide 320 g/ha
Outline: as §3

[16] = test system: chickweed; assay: Test Example 4: herbicidal effect by soil treatment (Table 19, symbol P); assay type: in vivo, common chickweed (Stellaria media); settings: amount of applied herbicide 320 g/ha
Outline: as §3

[17] = test system: false cleavers; assay: Test Example 4: herbicidal effect by soil treatment (Table 19, symbol Q); assay type: in vivo, false cleavers (Galium spurium); settings: amount of applied herbicide 320 g/ha
Outline: as §3

[18] = test system: persian speedwell; assay: Test Example 4: herbicidal effect by soil treatment (Table 19, symbol R); assay type: in vivo, Persian speedwell (Veronica persica); settings: amount of applied herbicide 320 g/ha
Outline: as §3

[19] = test system: southern crabgrass; assay: Test Example 5: herbicidal effect by foliage application, plastic box (Table 20, symbol F); assay type: in vivo, southern crabgrass (Digitaria ciliaris); settings: foliage application, AAH 320 g/ha, evaluated three weeks after application
Outline: (§4)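 Plants sown in sterilized diluvial soil and grown 14 days in a greenhouse at 25° C to 30° C, then sprayed on the foliage with the compound's emulsion diluted in water to a predetermined herbicide amount. Injury to weeds and crops scored three weeks after application on a visual rating scale.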

[20] = test system: green foxtail; assay: Test Example 5: herbicidal effect by foliage application, plastic box (Table 20, symbol G); assay type: in vivo, green foxtail (Setaria viridis); settings: foliage application, AAH 320 g/ha, evaluated three weeks after application
Outline: as §4

[21] = test system: barnyard grass; assay: Test Example 5: herbicidal effect by foliage application, plastic box (Table 20, symbol H); assay type: in vivo, barnyard grass (Echinochloa crus-galli); settings: foliage application, AAH 320 g/ha, evaluated three weeks after application
Outline: as §4

[22] = test system: wild oat; assay: Test Example 5: herbicidal effect by foliage application, plastic box (Table 20, symbol I); assay type: in vivo, wild oat (Avena fatua); settings: foliage application, AAH 320 g/ha, evaluated three weeks after application
Outline: as §4

[23] = test system: blackgrass; assay: Test Example 5: herbicidal effect by foliage application, plastic box (Table 20, symbol J); assay type: in vivo, blackgrass (Alopecurus myosuroides); settings: foliage application, AAH 320 g/ha, evaluated three weeks after application
Outline: as §4

[24] = test system: Italian ryegrass; assay: Test Example 5: herbicidal effect by foliage application, plastic box (Table 20, symbol K); assay type: in vivo, Italian ryegrass (Lolium multiflorum); settings: foliage application, AAH 320 g/ha, evaluated three weeks after application
Outline: as §4

[25] = test system: windgrass; assay: Test Example 5: herbicidal effect by foliage application, plastic box (Table 20, symbol L); assay type: in vivo, windgrass (Apera spica-venti); settings: foliage application, AAH 320 g/ha, evaluated three weeks after application
Outline: as §4

[26] = test system: velvetleaf; assay: Test Example 5: herbicidal effect by foliage application, plastic box (Table 20, symbol M); assay type: in vivo, velvetleaf (Abutilon theophrasti); settings: foliage application, AAH 320 g/ha, evaluated three weeks after application
Outline: as §4

[27] = test system: redroot pigweed; assay: Test Example 5: herbicidal effect by foliage application, plastic box (Table 20, symbol N); assay type: in vivo, redroot pigweed (Amaranthus retroflexus); settings: foliage application, AAH 320 g/ha, evaluated three weeks after application
Outline: as §4

[28] = test system: lambsquarters; assay: Test Example 5: herbicidal effect by foliage application, plastic box (Table 20, symbol O); assay type: in vivo, lambsquarters (Chenopodium album); settings: foliage application, AAH 320 g/ha, evaluated three weeks after application
Outline: as §4

[29] = test system: chickweed; assay: Test Example 5: herbicidal effect by foliage application, plastic box (Table 20, symbol P); assay type: in vivo, common chickweed (Stellaria media); settings: foliage application, AAH 320 g/ha, evaluated three weeks after application
Outline: as §4

[30] = test system: persian speedwell; assay: Test Example 5: herbicidal effect by foliage application, plastic box (Table 20, symbol R); assay type: in vivo, Persian speedwell (Veronica persica); settings: foliage application, AAH 320 g/ha, evaluated three weeks after application
Outline: as §4

CCn1nc(C)c(O)c(-c2c(-c3ccc(F)cc3)sc3ccc(F)cc23)c1=O [2-398]
Herbicidal effect, A: late watergrass [1]: 3 (Herbicidal rate of 40% or more and less than 70%)
Herbicidal effect, B: Japanese bulrush [2]: 3 (Herbicidal rate of 40% or more and less than 70%)
Herbicidal effect, C: oval-leafed pondweed [3]: 0 (Herbicidal rate of 5% or less (almost no effect))
herbicidal effect on D: Chinese sprangletop [4]: 0 (Herbicidal rate of 5% or less (almost no effect))
herbicidal effect on E: rice flat sedge [5]: 3 (Herbicidal rate of 40% or more and less than 70%)
herbicidal effect, F: southern crabgrass [6]: 3 (Herbicidal rate of 40% or more and less than 70%)
herbicidal effect, G: green foxtail [7]: 3 (Herbicidal rate of 40% or more and less than 70%)
herbicidal effect, H: barnyard grass [8]: 2 (Herbicidal rate of 20% or more and less than 40%)
herbicidal effect, I: wild oat [9]: 0 (Herbicidal rate of 5% or less (almost no effect))
herbicidal effect, J: blackgrass [10]: 0 (Herbicidal rate of 5% or less (almost no effect))
herbicidal effect, K: Italian ryegrass [11]: 4 (Herbicidal rate of 70% or more and less than 90%)
herbicidal effect, L: windgrass [12]: 0 (Herbicidal rate of 5% or less (almost no effect))
herbicidal effect, M: velvetleaf [13]: 1 (Herbicidal rate of 5% or more and less than 20%)
herbicidal effect, N: redroot pigweed [14]: 4 (Herbicidal rate of 70% or more and less than 90%)
herbicidal effect, O: lambsquarters [15]: 3 (Herbicidal rate of 40% or more and less than 70%)
herbicidal effect, P: chickweed [16]: 0 (Herbicidal rate of 5% or less (almost no effect))
herbicidal effect, Q: false cleavers [17]: 0 (Herbicidal rate of 5% or less (almost no effect))
herbicidal effect, R: persian speedwell [18]: 1 (Herbicidal rate of 5% or more and less than 20%)
F: southern crabgrass, herbicidal effect (criteria 0-5) [19]: 4 (Herbicidal rate of 70% or more and less than 90%)
G: green foxtail, herbicidal effect (criteria 0-5) [20]: 4 (Herbicidal rate of 70% or more and less than 90%)
H: barnyard grass, herbicidal effect (criteria 0-5) [21]: 5 (Herbicidal rate of 90% or more (almost completely withered))
I: wild oat, herbicidal effect (criteria 0-5) [22]: 0 (Herbicidal rate of 5% or less (almost no effect))
J: blackgrass, herbicidal effect (criteria 0-5) [23]: 0 (Herbicidal rate of 5% or less (almost no effect))
K: Italian ryegrass, herbicidal effect (criteria 0-5) [24]: 4 (Herbicidal rate of 70% or more and less than 90%)
L: windgrass, herbicidal effect (criteria 0-5) [25]: 0 (Herbicidal rate of 5% or less (almost no effect))
M: velvetleaf, herbicidal effect (criteria 0-5) [26]: 5 (Herbicidal rate of 90% or more (almost completely withered))
N: redroot pigweed, herbicidal effect (criteria 0-5) [27]: 5 (Herbicidal rate of 90% or more (almost completely withered))
O: lambsquarters, herbicidal effect (criteria 0-5) [28]: 4 (Herbicidal rate of 70% or more and less than 90%)
P: chickweed, herbicidal effect (criteria 0-5) [29]: 5 (Herbicidal rate of 90% or more (almost completely withered))
R: persian speedwell, herbicidal effect (criteria 0-5) [30]: 5 (Herbicidal rate of 90% or more (almost completely withered))
